Source: US7118895B2, “Process for producing aglycon by using diglycosidase and flavor-improved food containing the aglycon and converting agent to be used in the process” (Amano Enzyme Inc., priority 2000, dated 2006)

System: Crude diglycosidase
Assay: Examination of temperature in the conversion into isoflavone aglycons by diglycosidase using soybean materials
Assay type: biochemical, Penicillium multicolor IAM7153
Design: Decomposition efficiency of glycitin family in roasted soy flour / Decomposition efficiency of daidzin family in roasted soy flour / Decomposition efficiency of genistin family in soymilk / Decomposition efficiency of daidzin family in soymilk / Decomposition efficiency of glycitin family in defatted soybean / Decomposition efficiency of daidzin family in defatted soybean: concentration or dose not given beside the values
Summary of the method: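 Soybean materials (50 mg) suspended in 20 mM acetate buffer pH 4.0 reacted with crude diglycosidase diluted to 1.88 AU/mL at 80, 65, 55, 45, 37 or 30° C. Reactions stopped with ethanol at 0, 1, 3 and 6 h; isoflavone glycosides and aglycons in supernatant detected by HPLC.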

[1] = 30° C., heat treatment of enzyme no, reaction time 0 h
[2] = 30° C., heat treatment of enzyme no, reaction time 1 h
[3] = 30° C., heat treatment of enzyme no, reaction time 3 h
[4] = 30° C., heat treatment of enzyme no, reaction time 6 h
[5] = 30° C., heat treatment of enzyme yes, reaction time 6 h
[6] = 30 °C, heat treatment of enzyme: no, 0 h
[7] = 30 °C, heat treatment of enzyme: no, 1 h
[8] = 30 °C, heat treatment of enzyme: no, 3 h
[9] = 30 °C, heat treatment of enzyme: no, 6 h
[10] = 30 °C, heat treatment of enzyme: yes, 6 h
[11] = 45° C., heat treatment of enzyme no, reaction time 0 h
[12] = 45° C., heat treatment of enzyme no, reaction time 1 h
[13] = 45° C., heat treatment of enzyme no, reaction time 3 h
[14] = 45° C., heat treatment of enzyme no, reaction time 6 h
[15] = 45° C., heat treatment of enzyme yes, reaction time 6 h
[16] = 45 °C, heat treatment of enzyme: no, 0 h
[17] = 45 °C, heat treatment of enzyme: no, 1 h
[18] = 45 °C, heat treatment of enzyme: no, 3 h
[19] = 45 °C, heat treatment of enzyme: no, 6 h
[20] = 45 °C, heat treatment of enzyme: yes, 6 h
[21] = 55° C., heat treatment of enzyme no, reaction time 0 h
[22] = 55° C., heat treatment of enzyme no, reaction time 1 h
[23] = 55° C., heat treatment of enzyme no, reaction time 3 h
[24] = 55° C., heat treatment of enzyme no, reaction time 6 h
[25] = 55° C., heat treatment of enzyme yes, reaction time 6 h
[26] = 55 °C, heat treatment of enzyme: no, 0 h
[27] = 55 °C, heat treatment of enzyme: no, 1 h
[28] = 55 °C, heat treatment of enzyme: no, 3 h
[29] = 55 °C, heat treatment of enzyme: no, 6 h
[30] = 55 °C, heat treatment of enzyme: yes, 6 h
[31] = 65° C., heat treatment of enzyme no, reaction time 0 h
[32] = 65° C., heat treatment of enzyme no, reaction time 1 h
[33] = 65° C., heat treatment of enzyme no, reaction time 3 h
[34] = 65° C., heat treatment of enzyme no, reaction time 6 h
[35] = 65° C., heat treatment of enzyme yes, reaction time 6 h
[36] = 65 °C, heat treatment of enzyme: no, 0 h
[37] = 65 °C, heat treatment of enzyme: no, 1 h
[38] = 65 °C, heat treatment of enzyme: no, 3 h
[39] = 65 °C, heat treatment of enzyme: no, 6 h
[40] = 65 °C, heat treatment of enzyme: yes, 6 h
[41] = 80° C., heat treatment of enzyme no, reaction time 0 h
[42] = 80° C., heat treatment of enzyme no, reaction time 1 h
[43] = 80° C., heat treatment of enzyme no, reaction time 3 h
[44] = 80° C., heat treatment of enzyme no, reaction time 6 h
[45] = 80° C., heat treatment of enzyme yes, reaction time 6 h
[46] = 80 °C, heat treatment of enzyme: no, 0 h
[47] = 80 °C, heat treatment of enzyme: no, 1 h
[48] = 80 °C, heat treatment of enzyme: no, 3 h
[49] = 80 °C, heat treatment of enzyme: no, 6 h
[50] = 80 °C, heat treatment of enzyme: yes, 6 h

Decomposition efficiency of genistin family in concentrated soybean protein [1]: not detected
Decomposition efficiency of genistin family in defatted soybean [1]: 47.0%
Decomposition efficiency of genistin family in concentrated soybean protein [2]: not detected
Decomposition efficiency of genistin family in defatted soybean [2]: 51.3%
Decomposition efficiency of genistin family in concentrated soybean protein [3]: not detected
Decomposition efficiency of genistin family in defatted soybean [3]: 49.1%
Decomposition efficiency of genistin family in concentrated soybean protein [4]: not detected
Decomposition efficiency of genistin family in defatted soybean [4]: 45.6%
Decomposition efficiency of genistin family in concentrated soybean protein [5]: not detected
Decomposition efficiency of genistin family in defatted soybean [5]: 49.5%
Decomposition efficiency of genistin family in roasted soy flour [6]: not detected
Decomposition efficiency of genistin family in soymilk [6]: 58.5%
Decomposition efficiency of genistin family in roasted soy flour [7]: not detected
Decomposition efficiency of genistin family in soymilk [7]: 56.5%
Decomposition efficiency of genistin family in roasted soy flour [8]: not detected
Decomposition efficiency of genistin family in soymilk [8]: 47.9%
Decomposition efficiency of genistin family in roasted soy flour [9]: not detected
Decomposition efficiency of genistin family in soymilk [9]: 36.1%
Decomposition efficiency of genistin family in roasted soy flour [10]: not detected
Decomposition efficiency of genistin family in soymilk [10]: 57.7%
Decomposition efficiency of genistin family in concentrated soybean protein [11]: not detected
Decomposition efficiency of genistin family in defatted soybean [11]: 47.0%
Decomposition efficiency of genistin family in concentrated soybean protein [12]: not detected
Decomposition efficiency of genistin family in defatted soybean [12]: 49.0%
Decomposition efficiency of genistin family in concentrated soybean protein [13]: not detected
Decomposition efficiency of genistin family in defatted soybean [13]: 46.8%
Decomposition efficiency of genistin family in concentrated soybean protein [14]: not detected
Decomposition efficiency of genistin family in defatted soybean [14]: 44.2%
Decomposition efficiency of genistin family in concentrated soybean protein [15]: not detected
Decomposition efficiency of genistin family in defatted soybean [15]: 48.1%
Decomposition efficiency of genistin family in roasted soy flour [16]: not detected
Decomposition efficiency of genistin family in soymilk [16]: 57.8%
Decomposition efficiency of genistin family in roasted soy flour [17]: not detected
Decomposition efficiency of genistin family in soymilk [17]: 49.4%
Decomposition efficiency of genistin family in roasted soy flour [18]: not detected
Decomposition efficiency of genistin family in soymilk [18]: 34.7%
Decomposition efficiency of genistin family in roasted soy flour [19]: not detected
Decomposition efficiency of genistin family in soymilk [19]: 20.7%
Decomposition efficiency of genistin family in roasted soy flour [20]: not detected
Decomposition efficiency of genistin family in soymilk [20]: 57.2%
Decomposition efficiency of genistin family in concentrated soybean protein [21]: not detected
Decomposition efficiency of genistin family in defatted soybean [21]: 47.0%
Decomposition efficiency of genistin family in concentrated soybean protein [22]: not detected
Decomposition efficiency of genistin family in defatted soybean [22]: 48.8%
Decomposition efficiency of genistin family in concentrated soybean protein [23]: not detected
Decomposition efficiency of genistin family in defatted soybean [23]: 46.1%
Decomposition efficiency of genistin family in concentrated soybean protein [24]: not detected
Decomposition efficiency of genistin family in defatted soybean [24]: 43.4%
Decomposition efficiency of genistin family in concentrated soybean protein [25]: not detected
Decomposition efficiency of genistin family in defatted soybean [25]: 47.8%
Decomposition efficiency of genistin family in roasted soy flour [26]: not detected
Decomposition efficiency of genistin family in soymilk [26]: 59.1%
Decomposition efficiency of genistin family in roasted soy flour [27]: not detected
Decomposition efficiency of genistin family in soymilk [27]: 46.9%
Decomposition efficiency of genistin family in roasted soy flour [28]: not detected
Decomposition efficiency of genistin family in soymilk [28]: 32.5%
Decomposition efficiency of genistin family in roasted soy flour [29]: not detected
Decomposition efficiency of genistin family in soymilk [29]: 20.4%
Decomposition efficiency of genistin family in roasted soy flour [30]: not detected
Decomposition efficiency of genistin family in soymilk [30]: 53.3%
Decomposition efficiency of genistin family in concentrated soybean protein [31]: not detected
Decomposition efficiency of genistin family in defatted soybean [31]: 47.0%
Decomposition efficiency of genistin family in concentrated soybean protein [32]: not detected
Decomposition efficiency of genistin family in defatted soybean [32]: 48.9%
Decomposition efficiency of genistin family in concentrated soybean protein [33]: not detected
Decomposition efficiency of genistin family in defatted soybean [33]: 45.2%
Decomposition efficiency of genistin family in concentrated soybean protein [34]: not detected
Decomposition efficiency of genistin family in defatted soybean [34]: 41.1%
Decomposition efficiency of genistin family in concentrated soybean protein [35]: not detected
Decomposition efficiency of genistin family in defatted soybean [35]: 39.7%
Decomposition efficiency of genistin family in roasted soy flour [36]: not detected
Decomposition efficiency of genistin family in soymilk [36]: 58.5%
Decomposition efficiency of genistin family in roasted soy flour [37]: not detected
Decomposition efficiency of genistin family in soymilk [37]: 48.9%
Decomposition efficiency of genistin family in roasted soy flour [38]: not detected
Decomposition efficiency of genistin family in soymilk [38]: 40.6%
Decomposition efficiency of genistin family in roasted soy flour [39]: not detected
Decomposition efficiency of genistin family in soymilk [39]: 31.8%
Decomposition efficiency of genistin family in roasted soy flour [40]: not detected
Decomposition efficiency of genistin family in soymilk [40]: 44.6%
Decomposition efficiency of genistin family in concentrated soybean protein [41]: not detected
Decomposition efficiency of genistin family in defatted soybean [41]: 47.0%
Decomposition efficiency of genistin family in concentrated soybean protein [42]: not detected
Decomposition efficiency of genistin family in defatted soybean [42]: 43.8%
Decomposition efficiency of genistin family in concentrated soybean protein [43]: not detected
Decomposition efficiency of genistin family in defatted soybean [43]: 32.5%
Decomposition efficiency of genistin family in concentrated soybean protein [44]: not detected
Decomposition efficiency of genistin family in defatted soybean [44]: 20.9%
Decomposition efficiency of genistin family in concentrated soybean protein [45]: not detected
Decomposition efficiency of genistin family in defatted soybean [45]: 20.1%
Decomposition efficiency of genistin family in roasted soy flour [46]: not detected
Decomposition efficiency of genistin family in soymilk [46]: 57.8%
Decomposition efficiency of genistin family in roasted soy flour [47]: not detected
Decomposition efficiency of genistin family in soymilk [47]: 50.4%
Decomposition efficiency of genistin family in roasted soy flour [48]: not detected
Decomposition efficiency of genistin family in soymilk [48]: 37.7%
Decomposition efficiency of genistin family in roasted soy flour [49]: not detected
Decomposition efficiency of genistin family in soymilk [49]: 24.1%
Decomposition efficiency of genistin family in roasted soy flour [50]: not detected
Decomposition efficiency of genistin family in soymilk [50]: 22.9%
Structure (SMILES): O=C(O)CC(=O)OC[C@H]1O[C@@H](Oc2cc(O)c3c(=O)c(-c4ccc(O)cc4)coc3c2)[C@H](O)[C@@H](O)[C@@H]1O [malonylgenistin, 6″-O-malonylgenistin]
